The values that follow come from patent publication US11054425B2, “System and method for identification and characterization of transglutaminase species” (Roche Sequencing Solutions, Inc., priority 2014, dated 2021).

Test [1] concerns KalbTG. The test is described as follows: GLDH-coupled assay in solution (NADH oxidation). The settings on record: kinetics, varying substrate concentrations. Format: biochemical, Kutzneria albida. On the procedure: KalbTG activity was obtained by measuring incorporation of a biotinylated amine-donor on the peptide array and rates of NADH oxidation at 340 nm and 37° C. in the presence of amine-donor substrate (500 μM) in the GLDH-coupled assay using 100 μM each of nine of the best-performing array-selected glutamine-containing substrates and of two S. mobaraensis MTG glutamine-containing substrates. […] Testing of the top sequences in Table 1 confirmed YRYRQ (SEQ ID NO: 1) and RYRQR (SEQ ID NO 14) as the top performing 5-mer substrates, with turnover rates of 3.52±0.08 pmol NADH s^−1 and 3.60±0.12 pmol NADH s^−1, respectively.
With reference to Table 2, KalbTG activity was obtained by measuring incorporation of a biotinylated glutamine-donor and rates of NADH oxidation at 340 nm and 37° C. in the presence of glutamine-donor substrate (200 μM) in the GLDH-coupled assay using 100 μM each of i) six of the top-performing array-selected lysine substrates, ii) cadaverine, and iii) preferred MTG lysine substrate ARSKL (SEQ ID NO:30). […] This is a small but significant increase over cadaverine (3.51±0.12 pmol s^−1) or ARSKL (SEQ ID NO:30) (3.87±0.31 pmol s^−1), a peptide previously established as a preferred MTG lysine donor motif on the peptide array. Additional details on the S. mobaraensis MTG substrate peptide ARSKL (SEQ ID NO:30) can be found in U.S. Provisional Patent Application Ser. No. 62/094,495 to Albert et al. filed on Dec. 19, 2014.
(§1) For the GLDH coupled assay, to determine whether the KalbTG peptides selected in the array assay were also preferred substrates in a solution reaction and to quantify cross-reactivity of KalbTG and S. mobaraensis MTG with various substrates, a continuous glutamate dehydrogenase (GLDH)-coupled assay for S. mobaraensis MTG activity (see Oteng-Pabi, et al., 2013. Analytical biochemistry 441(2): 169-173) was applied.
(§2) For glutamine substrate evaluation, the assay was performed in a transparent 96-well microtiter plate in the presence of 500 μM α-ketoglutarate, 500 μM or 1 mM cadaverine as Amine donor substituting for a lysine-containing peptide, 2 U ml^−1 of glutamate dehydrogenase (GLDH), 500 μM NADH and glutamine-containing substrate peptide (Z-[[…] (SEQ ID NO:77)], Z-[[…] (SEQ ID NO:78)], Z-[[…] (SEQ ID NO:75)], Z-[[…] (SEQ ID NO:79)], Z-[[…] (SEQ ID NO:80)], Z-[[…] (SEQ ID NO:81)], Z-[[…] (SEQ ID NO:82)], Z-[[…] (SEQ ID NO:83)], Z-[[…] (SEQ ID NO:84)], Z-[[…] (SEQ ID NO:85)], Z-[[…] (SEQ ID NO:86)], Z-[[…] (SEQ ID NO:76)] or Z-[[…] (SEQ ID NO:87)]) concentrations ranging between 0 and 1 mM in 200 mM MOPS, 1 mM EDTA pH 7.2 (total volume per well 200 μl).
For amine substrate evaluation, assay conditions were the same as for glutamine substrate evaluation with the exception that 100 μM each of amine substrate (Z-[[…] (SEQ ID NO:88)], Z-[[…] (SEQ ID NO:89)], Z-[[…] (SEQ ID NO:90)], Z-[[…] (SEQ ID NO:91)], Z-[[…] (SEQ ID NO:92)], Z-[[…] (SEQ ID NO:93)], Z-[[…] (SEQ ID NO:94)], Z-[[…] (SEQ ID NO:95)] or cadaverine) and 200 μM glutamine donor (Z-[[…] (SEQ ID NO:75)] or Z-[[…] (SEQ ID NO:76)]) were used.
Reactions were started by the addition of 5 μg ml^−1 of S. mobaraensis MTG or KalbTG and the oxidation of NADH was continuously recorded at 340 nm for 60 minutes using a Biotek Synergy H4 microplate reader, temperature controlled at 37° C., with short shaking intervals before each measurement. After a short lag phase where the GLDH was saturated by transglutaminase-mediated release of ammonia, linear rates of absorbance versus time corresponding to transglutaminase turnover were observed and subjected to Michaelis-Menten kinetic analysis. […]

Another test deals with S. mobaraensis MTG. The test is described as follows: GLDH-coupled assay in solution (NADH oxidation). Format: biochemical, Streptomyces mobaraensis. Particulars: enzyme MTG; glutamine-donor 0 to 1 mM, cadaverine 1 mM, 37° C. The protocol:
as §1, §2
Reactions were started by the addition of 5 μg ml^−1 of S. mobaraensis MTG or KalbTG and the oxidation of NADH was continuously recorded at 340 nm for 60 minutes using a Biotek Synergy H4 microplate reader, temperature controlled at 37° C., with short shaking intervals before each measurement. After a short lag phase where the GLDH was saturated by transglutaminase-mediated release of ammonia, linear rates of absorbance versus time corresponding to transglutaminase turnover were observed and subjected to Michaelis-Menten kinetic analysis. Rates of absorbance in millioptical density units per minute (mOD min^−1) were converted into molar rates of NADH turnover (pmol s^−1) using the formula of Equation 1 (previously determined by an NADH standard curve): Turnover rate=|Absorbance rate|*1.111 (Eq. 1)

Test [2] concerns KalbTG. The test is described as follows: 5-mer peptide array, glutamine-substrate screening with biotinylated amine donor. Format: biochemical, Kutzneria albida. Particulars: incorporation of biotinylated amine-donor on 5-mer peptide array. The protocol: To identify potential acyl-donor and amine-donor substrates of the K. albida transglutaminase, high-throughput screening on 5-mer peptide arrays was performed (FIGS. 4A and 4B). An activity of at least 1.65 U/mg for both the SlyD-fused and the mature KalbTG enzymes was confirmed by commercial assay (Zedira MTG-ANiTA-KIT; compared to 4.3 U mg^−1 by the MTG supplied with the kit and a 0.07 U/mg blank value with BSA). The assay used β-casein as a cross-linking substrate and detected deamidation by a glutamate dehydrogenase dependent oxidation of NADPH. Specific recognition motifs were identified by assaying KalbTG with peptide arrays prepared by maskless array synthesis (U.S. Pat. Pub. No 2015/0185216 to Albert et al. filed on 19 Dec. 2014). The efficiency of the transamidation reaction between 1.4 million unique 5-mer peptides and a biotinylated amine donor was quantified on two arrays in parallel and the sequences of the peptides with the highest turnovers were determined (FIG. 4A). The nine best peptides were resynthesized and tested for KalbTG activity in a standalone GLDH-coupled assay. Note that the array signal for the sequence MLAQG (SEQ ID NO:13) is marked not applicable (n. a.) as this sequence was not included on the array. Similarly, measurement of a background signal was only applicable to experiments performed on the array.
For construction of the peptide array, a library of 1,360,732 unique 5-mer peptides was designed by using all combinations of 18 natural amino acids excluding cysteine and methionine, as well as any dimer or a longer repeat of the same amino acid, and any peptide containing a dipeptide selected from HR, RH, HK, KH, RK, KR, HP, and PQ sequences. The library was synthesized in duplicate on the same array by using maskless light-directed peptide array synthesis. Each 5-mer peptide was flanked on both the N-terminus and C-terminus by 3 amino acid-long linkers synthesized by using mixture of glycine and serine having a 3:1 ratio.
To test KalbTG specificity for glutamine-containing substrate, N-(biotinyl)cadaverine was used as a substitute for a lysine substrate to biotinylate glutamine-peptides on a peptide array. KalbTG labeling reaction was performed in 1200 μL 100 mM Tris-HCl pH 8, 1 mM DTT, 50 μM N-(biotinyl)cadaverine, 0.2 ng μl^−1 KalbTG in SecureSeal™ chamber (Grace Bio-Labs) at 37° C. for 45 minutes. After incubation the chamber was removed and the array was washed in 20 mM Tris-HCl, pH7.8, 0.2 M NaCl, 1% SDS for 1 minute followed by a 1 minute wash in 20 mM Tris-HCl. Biotin linked to the array was stained with 0.3 μg ml^−1 Cy5-streptavidin in 10 mM Tris-HCl, pH7.4, 1% alkali-soluble casein, 0.05% TWEEN-20 non-ionic detergent at room temperature for 1 hour. Cy5 fluorescence intensity was measured with a fluorescence scanner at a resolution of 2 μm and a wavelength of 635 nm.

For test [3], the system named is Z-[GGGYRYRQGGGG (SEQ ID NO:75)]-OH. The test is described as follows: GLDH assay of transglutaminase enzyme activity after storage. Format: biochemical. The settings on record: 200 μM glutamine substrate, 10 mM cadaverine, 37° C., pH 7.4. The protocol: A further experiment was performed to determine the activity of KalbTG enzymes prepared from two different constructs, and stored at two different temperatures. The KalbTGt3 (SEQ ID NO:10) and KalbTGt1 (SEQ ID NO: 12) enzymes tested were obtained respectively from the EcSlyD2-Xa-KalbTGt3-8×His-tag construct (SEQ ID NO:8) and the EcSlyD2-Xa-KalbTGt1-8×His-tag construct (SEQ ID NO:11) described in Example 3. The activity of the two KalbTG enzymes was tested after storage at either 4° C. or −20° C. and compared against the activity of commercially available S. mobaraensis MTG according to a published protocol (Oteng-Pabi, et al., 2013. Analytical biochemistry 441(2): 169-173). In particular, assays were performed at 37° C. in 200 μl total volume. The assay mixture included 200 mM MOPS, 1 mM EDTA, and 1 mM DTT at pH 7.4. Further, α-ketoglutarate and NADH were added at a concentration of 500 μM, along with 2 U/ml GLDH, and between 0.1 μg and 1.0 μg of one of the transglutaminase enzymes. The glutamine substrate was 200 μM Z-[[…] (SEQ ID NO:75)]-OH, and the amine donor was 10 mM cadaverine, where Z represents a carboxybenzyl group. All data were collected in triplicate (average of 3 wells in a microtiter plate) and baseline activity (buffer without enzyme) subtracted.

No end group written: not given here. *: point of attachment. Cbz = O=C(OCc1ccccc1)*

In the case of “DYALQ (Cbz-DYALQ) [preferred S. mobaraensis MTG glutamine-containing substrate, reference compound]”, the “reactivity of KalbTG towards substrate” value in the test on KalbTG [1] is listed as “completely unreactive”. Further, in the test on S. mobaraensis MTG, the Michaelis-Menten constant (Km) – broadly, the substrate concentration at which the rate is half of its maximum – worked out at 847 ± 138 µM; the Vmax (in general, the rate approached at saturating substrate) was 36.66 ± 3.33 pmol/s; the kcat stood at 1.39 S^−1. Also, in the test with KalbTG [2], the “Array signal (log2)” value was determined as 7.22 log2.

B1: KalbTGt1: KalbTG enzyme without propeptide, expressed and purified with ammonium (protein)
chain: MLAPPLAEDRSYRTWRVEDYVEAWERYHGREMTEDERENLARGCIGVTVVNLNREDLSNPPLNLSFGSLRTAEAVQAALNKIVDTHPSPAQYEAAVAKDPILKRLKNVVKALPSWIDSAKLKASIFSKRFYSWQNPDWSEERAHTTYRPDRETDQVDMSTYRYRARPGYVNFDYGWFDQDTNTWWHANHEEPRMVVYQSTLRHYSRPLQDFDEQVFTVAFAKKDGHHHHHHHH
modifications: synthetic peptide sequence - KalbTGt1-8xHis; K-albida_MTG; 8xHis-tag
notes: KalbTG enzyme without propeptide, expressed and purified with ammonium
B1: the values for the Activity in test [3] (storage 4 ° C.) and in test [3] (storage −20 ° C.) were 1.4099 ± 0.1806 μmol NH3/min/mg Enzyme and 0.8630 ± 0.0259 μmol NH3/min/mg Enzyme, respectively.

B2: KalbTGt3: KalbTG enzyme from EcSlyD2-Xa-KalbTGt3-8×His after factor Xa and trypsin digest (protein)
chain: APLAPPLAEDRSYRTWRVEDYVEAWERYHGREMTEDERENLARGCIGVTVVNLNREDLSNPPLNLSFGSLRTAEAVQAALNKIVDTHPSPAQYEAAVAKDPILKRLKNVVKALPSWIDSAKLKASIFSKRFYSWQNPDWSEERAHTTYRPDRETDQVDMSTYRYRARPGYVNFDYGWFDQDTNTWWHANHEEPRMVVYQSTLRHYSRPLQDFDEQVFTVAFAKKDGGGSGHHHHHHHH
modifications: synthetic peptide sequence - KalbTGt3-8xHis-tag (post-trypsin digest); K-albida_MTG; 8xHis-tag
notes: KalbTG enzyme from EcSlyD2-Xa-KalbTGt3-8×His after factor Xa and trypsin digest
As for B2, the Activity was found to be 0.1501 ± 0.0011 μmol NH3/min/mg Enzyme in test [3] (storage 4 ° C.) and 0.1528 ± 0.0400 μmol NH3/min/mg Enzyme in test [3] (storage −20 ° C.).

B3: S. mobaraensis MTG: commercially available Streptomyces mobaraensis microbial transglutaminase (protein)
chain: MRIRRRALVFATMSAVLCTAGFMPSAGEAAADNGAGEETKSYAETYRLTADDVANINALNESAPAASSAGPSFRAPDSDDRVTPPAEPLDRMPDPYRPSYGRAETVVNNYIRKWQQVYSHRDGRKQQMTEEQREWLSYGCVGVTWVNSGQYPTNRLAFASFDEDRFKNELKNGRPRSGETRAEFEGRVAKESFDEEKGFQRAREVASVMNRALENAHDESAYLDNLKKELANGNDALRNEDARSPFYSALRNTPSFKERNGGNHDPSRMKAVIYSKHFWSGQDRSSSADKRKYGDPDAFRPAPGTGLVDMSRDRNIPRSPTSPGEGFVNFDYGWFGAQTEADADKTVWTHGNHYHAPNGSLGAMHVYESKFRNWSEGYSDFDRGAYVITFIPKSWNTAPDKVKQGWP
modifications: protein-glutamine gamma-glutamyltransferase
notes: commercially available Streptomyces mobaraensis microbial transglutaminase
Regarding B3, the Activity in test [3] (storage −20 ° C.) was 1.1348 ± 0.0059 μmol NH3/min/mg Enzyme.
